According to PMC12242667, “Attenuation of 6‑OHDA-Induced Neurotoxicity by 1,2,3-Triazole-Based Sulfonamides through SIRT1 Activity” (ACS Omega, 2025):
Read-outs that look alike come from different tables or passages of the source.

Key:
[1] = system: normal embryonic lung (MRC-5) cell line; assay: Cytotoxicity on MRC-5 cell line, MTT assay; assay type: cell-based; conditions: Homo sapiens, MRC5, MRC-5 cells, 48 h incubation
Method: Normal embryonic lung MRC-5 cells and neuroblastoma SH-SY5Y cells from the American Type Culture Collection (Manassas, VA, USA) were maintained in DMEM with 10% heat-inactivated FBS and 1% penicillin-streptomycin at 37 °C in humidified air containing 5% carbon dioxide.
Cytotoxicity of 1,2,3-triazole-based sulfonamides was evaluated by using a normal embryonic lung (MRC-5) cell line. The MRC-5 cells were cultured in 96-well microtiter plates (Corning Inc., NY, USA) at 5,000–20,000 cells/well and incubated for 24 h at 37 °C in humidified air containing 5% carbon dioxide. Subsequently, various concentrations of 1,2,3-triazole derivatives, doxorubicin (used as a positive control), and DMSO (used as a negative control) were added and incubated for an additional 48 h. MTT reagent (0.5 mg/mL in medium) was added for cell staining and incubated for 4 h. Then, the remaining formazan was dissolved in DMSO by sonication. The absorbance of the test wavelength of 550 nm and the reference wavelength of 650 nm was analyzed with a microplate reader (Molecular Devices, CA, USA). IC50 of each compound was determined as the concentration of the compound that inhibits cell growth by 50%.

[2] = system: 6-OHDA-induced SH-SY5Y neuronal cells; assay: Intracellular ROS production, H2DCFDA assay; assay type: cell-based; conditions: Homo sapiens, relative to control; for activity at 5 µM: 5 μM pretreatment 3 h, then 50 μM 6-OHDA 24 h
Method: ROS production in SH-SY5Y neuronal cells was investigated using H2DCFDA. 1.0 × 10^5 cells/mL of SH-SY5Y neuronal cells were seeded into 96-well plates for 24 h, and 5 μM of selected 1,2,3-triazole-based sulfonamide derivatives were pretreated for 3 h. Then, neurotoxicity of the cells were induced with 50 μM of 6-OHDA for another 24 h. The neuronal cells with 10 μM H2DCFDA were incubated for 30 min at 37 °C in the dark. The emission and excitation wavelengths of 528 nm and 485 nm, respectively, were measured by using a microplate reader. The measured ROS production was calculated as a percentage relative to the control group.

SIRT1 = biological target: T1, SIRT1 (Homo sapiens, UniProt Q96EB6); assay: SIRT1 deacetylase activity in SH-SY5Y cell lysate; assay type: cell-based; conditions: for activity at 5 µM: 5 μM pretreatment 3 h, then 50 μM 6-OHDA 24 h, relative to control
T1 construct: endogenous in cells; host or cells: SH-SY5Y
T1 sequence (Q96EB6 1-747): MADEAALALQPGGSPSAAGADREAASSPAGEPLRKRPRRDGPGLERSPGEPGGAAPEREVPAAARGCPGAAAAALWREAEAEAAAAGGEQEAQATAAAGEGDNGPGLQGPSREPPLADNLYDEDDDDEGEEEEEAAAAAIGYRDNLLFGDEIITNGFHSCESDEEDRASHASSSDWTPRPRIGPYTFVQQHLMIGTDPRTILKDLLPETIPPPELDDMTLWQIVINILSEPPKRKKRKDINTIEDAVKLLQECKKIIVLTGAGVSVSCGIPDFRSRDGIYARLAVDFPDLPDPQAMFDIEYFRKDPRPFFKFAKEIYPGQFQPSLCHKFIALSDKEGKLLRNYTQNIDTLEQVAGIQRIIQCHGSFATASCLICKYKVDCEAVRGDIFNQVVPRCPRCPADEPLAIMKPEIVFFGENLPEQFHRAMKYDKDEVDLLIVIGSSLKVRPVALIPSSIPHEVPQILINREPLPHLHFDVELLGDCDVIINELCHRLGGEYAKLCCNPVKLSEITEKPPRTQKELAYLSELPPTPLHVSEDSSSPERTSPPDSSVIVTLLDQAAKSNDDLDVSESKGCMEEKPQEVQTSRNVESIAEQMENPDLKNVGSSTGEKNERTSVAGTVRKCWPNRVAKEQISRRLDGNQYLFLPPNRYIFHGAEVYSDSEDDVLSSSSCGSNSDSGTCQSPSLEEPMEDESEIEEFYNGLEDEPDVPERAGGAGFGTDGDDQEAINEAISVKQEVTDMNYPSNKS
Method: SH-SY5Y neuronal cells at 1.0 × 10^5 cells/mL were seeded into 6-well plates for 24 h. Then, the cells were pretreated with 5 μM 1,2,3-triazole-based sulfonamide derivatives for 3 h before neurotoxicity was induced with 50 μM 6-OHDA for another 24 h. The cell culture medium was rinsed off with cold 1X PBS. The cells were incubated at 4 °C with 1X RIPA buffer containing a protease inhibitor for 20 min before being harvested using a cell scraper, followed by centrifugation at 12,000 rpm for 20 min. Protein concentrations were measured using the Bradford protein assay, and SIRT1 activity in the cells was determined following the manufacturer’s instructions. The increase in SIRT1 enzyme activity was measured by fluorescence intensity at an excitation wavelength of 340 nm and an emission wavelength of 445 nm. SIRT1 enzyme activity was statistically analyzed as a percentage relative to the control group.

[3] = system: 6-OHDA-induced SH-SY5Y neuronal cells; assay: Neuroprotection: cell viability of 6-OHDA-induced SH-SY5Y cells, MTT assay; assay type: cell-based, Human; conditions: then 50 μM 6-OHDA 24 h
Method: (§1) Prior to investigations, 1.0 × 10^5 SH-SY5Y neuronal cells/mL were seeded into 96-well plates for 24 h. To determine the optimal concentration of 6-OHDA for inducing neurotoxicity, cells were seeded into 96-well plates for 24 h and treated with various concentrations of 6-OHDA ranging from 25 to 125 μM for another 24 h. For the evaluation of the cytotoxicity of 1,2,3-triazole-based sulfonamide derivatives on SH-SY5Y neuronal cells, the cells were treated with various concentrations (0.1–10 μM) of 1,2,3-triazole-based sulfonamide derivatives for 24 h.^29 To assess the neuroprotective activity of 1,2,3-triazole-based sulfonamide derivatives, the cells were pretreated with various concentrations (0.1–10 μM) of 1,2,3-triazole-based sulfonamide derivatives for 3 h before being treated with 50 μM of 6-OHDA for another 24 h. Cell viability was assessed by incubating with 5 mg/mL of MTT reagent for 3 h at 37 °C, followed by absorbance measurement at 570 nm using a microplate reader (Thermo Fisher Scientific Inc., MA, USA). The viability of SH-SY5Y cells at each concentration was analyzed as a percentage relative to the control group.

[4] = system: 6-OHDA-induced SH-SY5Y neuronal cells; assay: Cellular leakage of LDH enzyme; assay type: cell-based, Human; conditions: percentage of control; for LDH leakage (LDH activity): 5 μM pretreatment 3 h, then 50 μM 6-OHDA 24 h
Method: Leakage of LDH, an enzyme commonly used as an assessment factor to evaluate cellular damage, was measured to determine the protective ability of the compounds against 6-OHDA-induced neuronal damage. 1.0 × 10^5 cells/mL of SH-SY5Y neuronal cells were seeded into 6-well plates for 24 h. The cells were pretreated with 5 μM of 1,2,3-triazole-based sulfonamide derivatives for 3 h before being treated with 50 μM of 6-OHDA for 24 h. The cell culture medium of SH-SY5Y cells was collected, and LDH leakage was evaluated using the LDH assay kit. In the presence of LDH, lactate is converted into pyruvate, resulting in an elevated level of NADH production, which is determined via the change in absorbance at 450 nm. LDH activity was calculated according to the manufacturer’s instructions and shown as a percentage of the control group.

[5] = Cytotoxicity of 6-OHDA against SH-SY5Y cells, MTT assay; assay type: cell-based; conditions: human, SH-SY5Y neuronal cells, relative to control, read-out: cell viability; for viability at 24 h: 6-OHDA
Method: as §1

SMILES	IC50 [1] [µM]	activity at 5 µM [2] [%]	activity at 5 µM (SIRT1) [%]	cell viability of 6-OHDA-induced cells ([3]; pretreatment 1 μM 3 h) [%]	cell viability of 6-OHDA-induced cells ([3]; pretreatment 5 μM 3 h) [%]	LDH leakage (LDH activity) [4] [%]	other results
O=c1ccc2ccc(OCc3cn(-c4ccc(S(=O)(=O)NCCc5ccccc5)cc4)nn3)cc2o1 [6a]	55.3 ± 1.45						
CC(=O)c1ccccc1OCc1cn(-c2ccc(S(=O)(=O)N3CCc4ccccc4C3)cc2)nn1 [5b]	15.4 ± 1.1						
O=Cc1ccc(OCc2cn(-c3ccc(S(=O)(=O)NCCc4ccccc4)cc3)nn2)cc1 [3a]	> 108	103 ± 4.94	92.5 ± 1.98	85.36 ± 4.615	87.69 ± 4.276	112.6 ± 2.585	
Cc1ccc(OCc2cn(-c3ccc(S(=O)(=O)NCCc4ccccc4)cc3)nn2)cc1 [2a]	89.4 ± 2.95	102 ± 4.74	91.9 ± 1.45	90.11 ± 5.567	89.25 ± 3.236	109.8 ± 3.826	
NCCc1cc(O)c(O)cc1O [6-OHDA, 6-hydroxydopamine]							activity at 50 µM ([2]; 50 μM 6-OHDA alone, 24 h): 119 ± 4.75%; viability at 24 h, 25 μM ([5]; 6-OHDA 25 μM (first of five concentrations 25–125 μM)): 90 ± 2.81%; viability at 24 h, 125 μM ([5]; 6-OHDA 125 μM (fifth of five concentrations 25–125 μM)): 54.4 ± 3.06%; viability at 24 h ([5]; fourth of five concentrations 25–125 μM): 56.2 ± 2.37%; viability at 24 h ([5]; second of five concentrations 25–125 μM): 78.5 ± 2.73%; viability at 24 h ([5]; third of five concentrations 25–125 μM): 61.6 ± 2.44%; activity at 50 µM (SIRT1; 24 h, read-out: SIRT1 activity): 78.8 ± 3.74%; LDH activity ([4]; 50 μM 6-OHDA alone, 24 h): 132.4 ± 5.089%
O=S(=O)(NCCc1ccccc1)c1ccc(-n2cc(-c3ccccc3)nn2)cc1 [1a]	103 ± 1.31						
O=c1cc(OCc2cn(-c3cccc(S(=O)(=O)N4CCc5ccccc5C4)c3)nn2)c2ccccc2o1 [2c]	> 97.2						
O=Cc1ccc(OCc2cn(-c3ccc(S(=O)(=O)N4CCc5ccccc5C4)cc3)nn2)cc1 [3b]	> 105	103 ± 5.8	94.3 ± 3.28	89.37 ± 4.597	90.41 ± 7.193	115.6 ± 2.926	
O=S(=O)(c1ccc(-n2cc(COc3ccccc3)nn2)cc1)N1CCc2ccccc2C1 [1b]	59 ± 3.69						
Cc1ccccc1OCc1cn(-c2ccc(S(=O)(=O)N3CCc4ccccc4C3)cc2)nn1 [4b]	19 ± 0.89	102 ± 5.64	91.06 ± 0.589	88.69 ± 4.465	84.03 ± 1.563	113.5 ± 2.954	
O=c1ccc2ccc(OCc3cn(-c4cccc(S(=O)(=O)N5CCc6ccccc6C5)c4)nn3)cc2o1 [1c]	14.4 ± 0.34						
COc1cccc2c1C(=O)c1c(O)c3c(c(O)c1C2=O)C[C@@](O)(C(=O)CO)C[C@@H]3O[C@H]1C[C@H](N)[C@H](O)[C@H](C)O1 [Doxorubicin, reference compound]	2.57 ± 0.36						
O=[N+]([O-])c1ccc(OCc2cn(-c3ccc(S(=O)(=O)NCCc4ccccc4)cc3)nn2)cc1 [4a]	80.4 ± 3.79	103 ± 5.15	92.9 ± 3.19	88.68 ± 3.959	85.48 ± 4.470	113.3 ± 6.585	
O=c1cc(OCc2cn(-c3ccc(S(=O)(=O)N4CCc5ccccc5C4)cc3)nn2)c2ccccc2o1 [6b]	> 97.2						
O=c1cc(OCc2cn(-c3ccc(S(=O)(=O)NCCc4ccccc4)cc3)nn2)c2ccccc2o1 [7a]	> 99.5						
Cc1ccc(OCc2cn(-c3ccc(S(=O)(=O)N4CCc5ccccc5C4)cc3)nn2)cc1 [2b]	70.4 ± 6.8						
Cc1ccccc1OCc1cn(-c2ccc(S(=O)(=O)NCCc3ccccc3)cc2)nn1 [5a]	> 111	104 ± 4.42	93.7 ± 2.54	91.89 ± 9.100	90.88 ± 6.158	116.0 ± 2.698	
COc1cc2c(cc1OC)CN(S(=O)(=O)c1cccc(-n3cc(COc4ccc5ccc(=O)oc5c4)nn3)c1)CC2 [3c]	> 87						
Oc1ccc(/C=C/c2cc(O)cc(O)c2)cc1 [Resveratrol, reference compound]		101 ± 5.5	92.6 ± 1.06	88.04 ± 6.146	92.06 ± 9.069	115.6 ± 2.723	cell viability of 6-OHDA-induced cells ([3]; pretreatment 0.1 μM (first of four concentrations 0.1–10 μM) 3 h): 90.01 ± 4.738%; cell viability of 6-OHDA-induced cells ([3]; pretreatment 10 μM (last of four concentrations 0.1–10 μM) 3 h): 90.47 ± 9.763%
COc1cc2c(cc1OC)CN(S(=O)(=O)c1cccc(-n3cc(COc4cc(=O)oc5ccccc45)nn3)c1)CC2 [4c]	> 87						
COc1ccc(CCNS(=O)(=O)c2ccc(-n3cc(-c4ccccc4)nn3)cc2)cc1OC [8a]	78.8 ± 8.11						
